This note sets out measurements from patent US20240208957A1, “TRIAZINE DERIVATIVE AS REVERSIBLE AND IRREVERSIBLE COVALENT INHIBITORS OF PI3K” (UNIVERSITÄT BASEL, priority 2021, published 2024).

One experiment deals with p110α (PI3Kα) (Homo sapiens, UniProt P42336). The experiment can be described thus: LanthaScreen determination of kinetic constants (kinact, Ki) for p110α.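 On all read-outs here: covalent inhibition constants for p110α come from LanthaScreen data, fitted globally by numerical integration in KinTek Global Kinetic Explorer software.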 The note with it: for Ki: dissociation constant of the first reversible binding, mean of 3; for kinact: read-out: kinact PI3Kα. Type of experiment: binding.
The subject of experiment [1] is pSer473 of PKB/Akt in SKOV3 cells. Kind of experiment: In-Cell Western cellular PI3K signaling, pSer473 of PKB/Akt in SKOV3 cells. Type of experiment: cell-based. The following applies: Homo sapiens. The procedure: Protein phosphorylation was detected as follows: pSer473 of PKB/Akt with rabbit polyclonal antibody from Cell Signaling Technology (CST) (#4058) by In-Cell Western assays, where 1.2×10^4 SKOV3 cells/well in 96-well plates were plated (Cell Carrier, PerkinElmer) for 24 hours (37° C., 5% CO2), as described in Ref.^21.

[2] abbreviates: mean of 3 independent measurements, global fitting with KinTek.
[3] abbreviates: SK-OV-3, SKOV3 cells, mean of 2 or 3 independent measurements, read-out: IC50 pPKB (S473) SKOV3.
[4] abbreviates: SK-OV-3, read-out: IC50 pPKB (S473) SKOV3.

SMILES strings stand for the structures. Like-named read-outs stand apart in the source and are kept apart here.

Sequence of p110α (PI3Kα) (P42336 whole entry): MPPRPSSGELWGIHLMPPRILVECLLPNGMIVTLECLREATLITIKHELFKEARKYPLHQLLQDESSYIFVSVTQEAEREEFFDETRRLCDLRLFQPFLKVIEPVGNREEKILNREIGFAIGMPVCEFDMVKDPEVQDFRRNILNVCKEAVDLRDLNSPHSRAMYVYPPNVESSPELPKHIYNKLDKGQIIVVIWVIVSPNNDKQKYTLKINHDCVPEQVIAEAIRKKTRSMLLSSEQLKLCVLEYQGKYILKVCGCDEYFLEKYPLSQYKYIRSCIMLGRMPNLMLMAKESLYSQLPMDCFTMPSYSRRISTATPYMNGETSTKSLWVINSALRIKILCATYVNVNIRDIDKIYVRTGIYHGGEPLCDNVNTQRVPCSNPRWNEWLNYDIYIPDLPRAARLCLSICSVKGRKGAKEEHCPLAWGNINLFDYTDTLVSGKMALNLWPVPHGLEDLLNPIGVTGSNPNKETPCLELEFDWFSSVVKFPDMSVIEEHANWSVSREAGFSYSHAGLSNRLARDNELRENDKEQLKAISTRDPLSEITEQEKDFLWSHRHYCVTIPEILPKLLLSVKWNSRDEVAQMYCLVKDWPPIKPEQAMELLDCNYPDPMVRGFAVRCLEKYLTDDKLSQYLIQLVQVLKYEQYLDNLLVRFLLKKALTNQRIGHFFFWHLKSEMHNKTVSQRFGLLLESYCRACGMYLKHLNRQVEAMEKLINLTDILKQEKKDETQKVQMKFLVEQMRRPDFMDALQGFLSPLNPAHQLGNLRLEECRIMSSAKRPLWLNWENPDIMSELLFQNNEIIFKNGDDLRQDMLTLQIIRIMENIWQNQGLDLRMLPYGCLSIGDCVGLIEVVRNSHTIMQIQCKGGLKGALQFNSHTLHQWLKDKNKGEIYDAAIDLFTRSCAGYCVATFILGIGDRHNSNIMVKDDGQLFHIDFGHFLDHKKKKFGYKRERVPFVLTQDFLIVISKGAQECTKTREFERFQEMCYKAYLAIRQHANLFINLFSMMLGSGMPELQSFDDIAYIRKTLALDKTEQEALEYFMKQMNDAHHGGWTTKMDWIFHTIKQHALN
Sequence of p110α (PI3Kα) (P27986 whole entry partner): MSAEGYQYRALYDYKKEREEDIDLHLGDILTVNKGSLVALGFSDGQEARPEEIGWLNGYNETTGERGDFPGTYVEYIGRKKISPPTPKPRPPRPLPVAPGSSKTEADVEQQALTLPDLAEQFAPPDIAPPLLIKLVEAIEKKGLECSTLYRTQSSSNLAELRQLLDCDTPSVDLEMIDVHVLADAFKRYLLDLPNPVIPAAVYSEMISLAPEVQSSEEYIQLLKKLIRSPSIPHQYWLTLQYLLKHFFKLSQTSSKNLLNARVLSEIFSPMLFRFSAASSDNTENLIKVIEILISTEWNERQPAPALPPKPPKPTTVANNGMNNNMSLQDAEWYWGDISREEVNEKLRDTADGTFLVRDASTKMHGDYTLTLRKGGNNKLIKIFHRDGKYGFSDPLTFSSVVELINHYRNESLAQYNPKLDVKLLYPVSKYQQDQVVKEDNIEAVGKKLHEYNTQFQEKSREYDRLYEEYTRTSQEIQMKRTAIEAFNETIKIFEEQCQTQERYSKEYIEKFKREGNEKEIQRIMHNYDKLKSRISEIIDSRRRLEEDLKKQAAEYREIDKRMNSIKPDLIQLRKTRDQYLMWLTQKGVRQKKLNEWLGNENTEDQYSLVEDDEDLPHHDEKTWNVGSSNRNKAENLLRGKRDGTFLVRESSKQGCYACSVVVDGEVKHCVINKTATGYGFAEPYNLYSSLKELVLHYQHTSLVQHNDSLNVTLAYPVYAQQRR
Description for p110α (PI3Kα): Apparent dissociation constants of compounds [Ki(app)] for p110α were determined by LanthaScreen Technology (Life Technologies), as described in Ref.^21.
Maximum potential rate of covalent bond formation (Kinact) and dissociation constant of the first reversible binding (Ki) of compounds for p110α were determined by LanthaScreen Technology (Life Technologies). The calculation of kinetic parameters was carried out through global fitting for numerical integration by using KinTek Global Kinetic Explorer modelling software^22-27.

In general, Ki refers to the dissociation constant of the complex between target and ligand, obtained from inhibition or displacement. The low end stands for a stronger hold on the target, the high end for a looser hold on the target. What is called kinact is the rate constant of inactivation at saturating inhibitor. Turning to `C=CC(=O)N1CCO[C@@H](COCC(=O)N2CCN(c3nc(-c4cnc(N)nc4C(F)F)nc(N4CCOC[C@@H]4C)n3)CC2)C1` [Compound 40, 1-((R)-2-((2-(4-(4-(2-amino-4-(difluoromethyl)pyrimidin-5-yl)-6-((S)-3-methylmorpholino)-1,3,5-triazin-2-yl)piperazin-1-yl)-2-oxoethoxy)methyl)morpholino)prop-2-en-1-one], the kinact/KI at p110α (PI3Kα) (PI3Kα, read-out: kinact/Ki) amounted to 224000 M⁻¹ s⁻¹. This compound displayed a Ki at p110α (PI3Kα) of 0.00727 µM. In addition, the kinact at p110α (PI3Kα) (setting [2]) stood at 0.00163 s⁻¹.
In general, IC50 refers to the concentration that inhibits the measured activity by half. Regarding `C=CC(=O)N1CC(C(=O)NCCN2CCN(c3nc(-c4cnc(N)nc4C(F)F)nc(N4CCOCC4)n3)CC2)C1` [Compound 36, 1-acryloyl-N-(2-(4-(4-(2-amino-4-(difluoromethyl)pyrimidin-5-yl)-6-morpholino-1,3,5-triazin-2-yl)piperazin-1-yl)ethyl)azetidine-3-carboxamide], the IC50 in experiment [1] (setting [3]) turned out to be 0.0482 µM.
In the case of `C=CC(=O)N1CC[C@@H](COCC(=O)N2CCN(c3nc(-c4cnc(N)nc4C(F)F)nc(N4CCOC[C@@H]4C)n3)CC2)C1` [Compound 4, 1-((R)-3-((2-(4-(4-(2-amino-4-(difluoromethyl)pyrimidin-5-yl)-6-((S)-3-methylmorpholino)-1,3,5-triazin-2-yl)piperazin-1-yl)-2-oxoethoxy)methyl)pyrrolidin-1-yl)prop-2-en-1-one], the IC50 in experiment [1] (setting [3]) is 0.0357 µM. Besides, the kinact/KI at p110α (PI3Kα) (PI3Kα, read-out: kinact/Ki) came to 325000 M⁻¹ s⁻¹. Further, the affinity at p110α (PI3Kα), expressed as Ki, was 0.0117 µM. For the same compound, the kinact at p110α (PI3Kα) (setting [2]) was determined as 0.00383 s⁻¹.
Regarding `Nc1ncc(-c2nc(N3CCOCC3)nc(N3CCN(C(=O)COC[C@@H]4CCCN(C(=O)/C=C/CF)C4)CC3)n2)c(C(F)F)n1` [Compound 13, (R,E)-1-(3-((2-(4-(4-(2-amino-4-(difluoromethyl)pyrimidin-5-yl)-6-morpholino-1,3,5-triazin-2-yl)piperazin-1-yl)-2-oxoethoxy)methyl)piperidin-1-yl)-4-fluorobut-2-en-1-one], in experiment [1] (setting [3]), the IC50 is 0.018 µM.
As for `N#C/C(=C/C1CC1)C(=O)N1CC[C@@H](COCC(=O)N2CCN(c3nc(-c4cnc(N)nc4C(F)F)nc(N4CCOCC4)n3)CC2)C1` [Compound 10, (R,Z)-2-(3-((2-(4-(4-(2-amino-4-(difluoromethyl)pyrimidin-5-yl)-6-morpholino-1,3,5-triazin-2-yl)piperazin-1-yl)-2-oxoethoxy)methyl)pyrrolidine-1-carbonyl)-3-cyclopropylacrylonitrile], the half-maximal inhibitory concentration (IC50) in experiment [1] (setting [3]) amounted to 0.0231 µM. At p110α (PI3Kα) (PI3Kα, read-out: kinact/Ki), the kinact/KI is 1.02e+07 M⁻¹ s⁻¹. At p110α (PI3Kα), the Ki turned out to be 0.00109 µM. Further, the kinact at p110α (PI3Kα) (setting [2]) came out at 0.0111 s⁻¹.
Regarding `C=CC(=O)N1CCC[C@@H](OCCC(=O)N2CCN(c3nc(-c4cnc(N)nc4C(F)F)nc(N4CCOC[C@@H]4C)n3)CC2)C1` [Compound 5, 1-((R)-3-(3-(4-(4-(2-amino-4-(difluoromethyl)pyrimidin-5-yl)-6-((S)-3-methylmorpholino)-1,3,5-triazin-2-yl)piperazin-1-yl)-3-oxopropoxy)piperidin-1-yl)prop-2-en-1-one], the IC50 in experiment [1] (setting [4]) is 0.0171 µM. Besides, at p110α (PI3Kα), the kinact/KI turned out to be 595000 M⁻¹ s⁻¹, the Ki was 0.00888 µM and the maximal inactivation rate constant (kinact) worked out at 0.0052 s⁻¹.
The like results for `N#C/C(=C/C1CC1)C(=O)N1CCC[C@@H](COCC(=O)N2CCN(c3nc(-c4cnc(N)nc4C(F)F)nc(N4CCOCC4)n3)CC2)C1` [Compound 8, (R,Z)-2-(3-((2-(4-(4-(2-amino-4-(difluoromethyl)pyrimidin-5-yl)-6-morpholino-1,3,5-triazin-2-yl)piperazin-1-yl)-2-oxoethoxy)methyl)piperidine-1-carbonyl)-3-cyclopropylacrylonitrile] were, in that order, 0.0116 µM, 3.96e+06 M⁻¹ s⁻¹, 0.00278 µM and 0.011 s⁻¹.
With `C=CC(=O)N1CCC[C@H](COCC(=O)N2CCN(c3nc(-c4cnc(N)nc4C(F)F)nc(N4CCOC[C@@H]4C)n3)CC2)C1` [Compound 2, 1-((S)-3-((2-(4-(4-(2-amino-4-(difluoromethyl)pyrimidin-5-yl)-6-((S)-3-methylmorpholino)-1,3,5-triazin-2-yl)piperazin-1-yl)-2-oxoethoxy)methyl)piperidin-1-yl)prop-2-en-1-one], the IC50 in experiment [1] (setting [3]) came out at 0.0288 µM. In addition, the kinact/KI at p110α (PI3Kα) (PI3Kα, read-out: kinact/Ki) is 94300 M⁻¹ s⁻¹. The affinity at p110α (PI3Kα), expressed as Ki, was 0.00278 µM. Also, at p110α (PI3Kα) (setting [2]), the kinact is 0.000262 s⁻¹.
Turning to `C[C@H]1COCCN1c1nc(-c2cnc(N)nc2C(F)F)nc(N2CCN(C(=O)COC[C@H]3CN(C(=O)/C(C#N)=C\C4CC4)CCO3)CC2)n1` [Compound 41, (Z)-2-((R)-2-((2-(4-(4-(2-amino-4-(difluoromethyl)pyrimidin-5-yl)-6-((S)-3-methylmorpholino)-1,3,5-triazin-2-yl)piperazin-1-yl)-2-oxoethoxy)methyl)morpholine-4-carbonyl)-3-cyclopropylacrylonitrile], the kinact/KI on p110α (PI3Kα) (PI3Kα, read-out: kinact/Ki) came to 1.05e+06 M⁻¹ s⁻¹. On p110α (PI3Kα), the Ki is 0.0116 µM. Further, the kinact at p110α (PI3Kα) (setting [2]) amounted to 0.0121 s⁻¹.
As to `C=CC(=O)N1CC[C@H](COCC(=O)N2CCN(c3nc(-c4cnc(N)nc4C(F)F)nc(N4CCOC[C@@H]4C)n3)CC2)C1` [Compound 3, 1-((S)-3-((2-(4-(4-(2-amino-4-(difluoromethyl)pyrimidin-5-yl)-6-((S)-3-methylmorpholino)-1,3,5-triazin-2-yl)piperazin-1-yl)-2-oxoethoxy)methyl)pyrrolidin-1-yl)prop-2-en-1-one], the IC50 in experiment [1] (setting [3]) stood at 0.023 µM. Besides, at p110α (PI3Kα) (PI3Kα, read-out: kinact/Ki), the kinact/KI was 502000 M⁻¹ s⁻¹. Also, the kinact at p110α (PI3Kα) (setting [2]) was 0.000432 s⁻¹.
`C[C@H]1COCCN1c1nc(-c2cnc(N)nc2C(F)F)nc(N2CCN(C(=O)COC[C@@H]3CN(C(=O)/C(C#N)=C\C4CC4)CCO3)CC2)n1` [Compound 43, (Z)-2-((S)-2-((2-(4-(4-(2-amino-4-(difluoromethyl)pyrimidin-5-yl)-6-((S)-3-methylmorpholino)-1,3,5-triazin-2-yl)piperazin-1-yl)-2-oxoethoxy)methyl)morpholine-4-carbonyl)-3-cyclopropylacrylonitrile]: on p110α (PI3Kα) (PI3Kα, read-out: kinact/Ki), the kinact/KI stood at 1.04e+06 M⁻¹ s⁻¹. For the same compound, the Ki at p110α (PI3Kα) was found to be 0.0138 µM. The kinact on p110α (PI3Kα) (setting [2]) was 0.0143 s⁻¹.
On to `C=C(F)C(=O)N1CCC[C@H](COCC(=O)N2CCN(c3nc(-c4cnc(N)nc4C(F)F)nc(N4CCOCC4)n3)CC2)C1` [Compound 12, (S)-1-(3-((2-(4-(4-(2-amino-4-(difluoromethyl)pyrimidin-5-yl)-6-morpholino-1,3,5-triazin-2-yl)piperazin-1-yl)-2-oxoethoxy)methyl)piperidin-1-yl)-2-fluoroprop-2-en-1-one], for which the IC50 in experiment [1] (setting [3]) was found to be 0.0154 µM.
Turning to `C=C(F)C(=O)N1CCC[C@@H](COCC(=O)N2CCN(c3nc(-c4cnc(N)nc4C(F)F)nc(N4CCOCC4)n3)CC2)C1` [Compound 11, (R)-1-(3-((2-(4-(4-(2-amino-4-(difluoromethyl)pyrimidin-5-yl)-6-morpholino-1,3,5-triazin-2-yl)piperazin-1-yl)-2-oxoethoxy)methyl)piperidin-1-yl)-2-fluoroprop-2-en-1-one], the IC50 in experiment [1] (setting [3]) was 0.0199 µM. Moreover, the Ki at p110α (PI3Kα) amounted to 0.00185 µM.
On to `N#C/C(=C/C1CC1)C(=O)N1CC[C@H](COCC(=O)N2CCN(c3nc(-c4cnc(N)nc4C(F)F)nc(N4CCOCC4)n3)CC2)C1` [Compound 9, (S,Z)-2-(3-((2-(4-(4-(2-amino-4-(difluoromethyl)pyrimidin-5-yl)-6-morpholino-1,3,5-triazin-2-yl)piperazin-1-yl)-2-oxoethoxy)methyl)pyrrolidine-1-carbonyl)-3-cyclopropylacrylonitrile], for which the IC50 in experiment [1] (setting [3]) stood at 0.0144 µM. For the same compound, the kinact/KI on p110α (PI3Kα) (PI3Kα, read-out: kinact/Ki) stood at 9.43e+06 M⁻¹ s⁻¹. At p110α (PI3Kα), this compound returned a Ki of 0.00111 µM. For the same compound, the kinact at p110α (PI3Kα) (setting [2]) came to 0.0105 s⁻¹.
As to `Nc1ncc(-c2nc(N3CCOCC3)nc(N3CCN(C(=O)COC[C@H]4CCCN(C(=O)/C=C/CF)C4)CC3)n2)c(C(F)F)n1` [Compound 14, (S,E)-1-(3-((2-(4-(4-(2-amino-4-(difluoromethyl)pyrimidin-5-yl)-6-morpholino-1,3,5-triazin-2-yl)piperazin-1-yl)-2-oxoethoxy)methyl)piperidin-1-yl)-4-fluorobut-2-en-1-one], the IC50 in experiment [1] (setting [3]) amounted to 0.0222 µM. On p110α (PI3Kα), this compound gave a Ki of 0.00191 µM.
`C/C=C/C(=O)N1CC(C(=O)N(C)CC(=O)N2CCN(c3nc(-c4cnc(N)nc4C(F)F)nc(N4CCOCC4)n3)CC2)C1` [Compound 34, (E)-N-(2-(4-(4-(2-amino-4-(difluoromethyl)pyrimidin-5-yl)-6-morpholino-1,3,5-triazin-2-yl)piperazin-1-yl)-2-oxoethyl)-1-(but-2-enoyl)-N-methylazetidine-3-carboxamide]: the IC50 in experiment [1] (setting [3]) came out at 0.236 µM.
In the case of `C=CC(=O)N1CCO[C@H](COCC(=O)N2CCN(c3nc(-c4cnc(N)nc4C(F)F)nc(N4CCOC[C@@H]4C)n3)CC2)C1` [Compound 42, 1-((S)-2-((2-(4-(4-(2-amino-4-(difluoromethyl)pyrimidin-5-yl)-6-((S)-3-methylmorpholino)-1,3,5-triazin-2-yl)piperazin-1-yl)-2-oxoethoxy)methyl)morpholino)prop-2-en-1-one], the kinact/KI at p110α (PI3Kα) (PI3Kα, read-out: kinact/Ki) was determined as 75400 M⁻¹ s⁻¹. On p110α (PI3Kα), the affinity corresponds to a Ki of 0.0071 µM. Further, on p110α (PI3Kα) (setting [2]), the kinact is 0.000537 s⁻¹.
As for `C=CC(=O)N1CCC[C@@H](COCC(=O)N2CCN(c3nc(-c4cnc(N)nc4C(F)F)nc(N4CCOC[C@@H]4C)n3)CC2)C1` [Compound 1, 1-((R)-3-((2-(4-(4-(2-amino-4-(difluoromethyl)pyrimidin-5-yl)-6-((S)-3-methylmorpholino)-1,3,5-triazin-2-yl)piperazin-1-yl)-2-oxoethoxy)methyl)piperidin-1-yl)prop-2-en-1-one], the IC50 in experiment [1] (setting [4]) stood at 0.0254 µM. For the same compound, at p110α (PI3Kα), the kinact/KI amounted to 156000 M⁻¹ s⁻¹; the affinity, expressed as Ki, was 0.0027 µM; the kinact was found to be 0.000419 s⁻¹.
